Assay results: article PMC10030462, “SB2301-mediated perturbation of membrane composition in lipid droplets induces lipophagy and lipid droplets ubiquitination” (Communications Biology, 2023)

Assays:
[1] = system: HeLa human cervical cancer cells; test: cells; parameters: cellular lipid droplet reduction, fluorescence imaging high-content phenotypic screen; conditions: 24 h, lipid droplet reduction in HeLa; for IC50: read-out: LD reduction (IC50, uM) Potency
Description: The LD reduction activity of these analogues (1–20) was initially evaluated in human cervical cancer HeLa cells at a fixed concentration (10 μM each) to determine the efficacy of LD reduction. In addition, potency was determined by measuring the half-maximal inhibitory concentration (IC50) (Supplementary Table 1). Compounds with high cytotoxicity and low water solubility were excluded during high-content phenotypic screening. […] We also observed a similar pattern of LD reduction in human hepatocellular carcinoma HepG2 cells (Supplementary Fig. 2A) and mouse hepatocyte AML12 cells (Supplementary Fig. 2B). Consistent with the reduction in cellular LDs, the cellular triglyceride (TG) content was reduced in a dose-dependent manner (Fig. 1E). Based on these findings, we conducted a further study to determine the mechanism by which SB2301 reduced cellular LDs.

[2] = target: T1, PCYT2 (ethanolamine-phosphate cytidylyltransferase 2) (Homo sapiens, UniProt Q99447); test: SPR (Biacore T100, immobilized human PCYT2, […] fit); also CETSA and TS-FITGE in HepG2 cells; type: binding
T1 construct: Human PCYT2 (Prospec, enz-221)
T1 sequence (Q99447 whole entry): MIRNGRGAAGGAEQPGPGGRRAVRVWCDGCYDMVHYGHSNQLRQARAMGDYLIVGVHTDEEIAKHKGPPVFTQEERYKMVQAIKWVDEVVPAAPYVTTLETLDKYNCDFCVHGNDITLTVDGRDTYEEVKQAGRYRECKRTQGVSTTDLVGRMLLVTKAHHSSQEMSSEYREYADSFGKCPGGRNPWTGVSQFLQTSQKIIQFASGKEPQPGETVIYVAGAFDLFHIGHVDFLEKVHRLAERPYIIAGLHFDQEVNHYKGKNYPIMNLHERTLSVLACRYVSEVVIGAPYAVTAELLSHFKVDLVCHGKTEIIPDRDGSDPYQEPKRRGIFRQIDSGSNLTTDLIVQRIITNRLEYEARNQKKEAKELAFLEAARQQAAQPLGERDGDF

Structure (SMILES)	IC50 [1] [µM]	Kd [2] [µM]	inhibition at 10 µM [1] [%]
COc1ccc(-n2cc(-c3ccc4cc(-c5cccc(O)c5)ccc4n3)nn2)cc1 [compound 3, 3]	3.7		19
Oc1cccc(-c2ccc3nc(-c4cn(-c5ccc(C(F)(F)F)cc5)nn4)ccc3c2)c1 [compound 6, 6]	32		35.9
N#Cc1cccc(-n2cc(-c3ccc4cc(-c5cccc(O)c5)ccc4n3)nn2)c1 [compound 8, 8]	27.6		-7.1
Oc1cccc(-c2ccc3nc(-c4cn(-c5cccc(F)c5)nn4)ccc3c2)c1 [compound 11, 11]	20.6		19.2
Oc1cccc(-c2ccc3nc(-c4cn(-c5ccc(Br)cc5)nn4)ccc3c2)c1 [compound 12, 12]	4.7		36.8
O=[N+]([O-])c1ccccc1-n1cc(-c2ccc3cc(-c4cccc(O)c4)ccc3n2)nn1 [compound 14, 14]	7.9		48.5

Now from value to compound, other results behind:

IC50 [1] [µM]	Kd [2] [µM]	Structure (SMILES)	inhibition at 10 µM [1] [%]
6.7		COc1ccccc1-n1cc(-c2ccc3cc(-c4cccc(O)c4)ccc3n2)nn1 [compound 1, 1]	50
4.4	~26	Oc1cccc(-c2ccc3nc(-c4cn(-c5ccccc5C(F)(F)F)nn4)ccc3c2)c1 [compound 4, SB2301]	64.5
14.8		N#Cc1ccccc1-n1cc(-c2ccc3cc(-c4cccc(O)c4)ccc3n2)nn1 [compound 7, 7]	30.4
10.1		Oc1cccc(-c2ccc3nc(-c4cn(-c5ccccc5Cl)nn4)ccc3c2)c1 [compound 10, 10]	2.7
11.6		Oc1cccc(-c2ccc3nc(-c4cn(-c5ccccc5O)nn4)ccc3c2)c1 [compound 13, 13]	12.7
